Data set [1] can be described thus: Absorbance and fluorescence spectroscopy of coumarin amides (λmax, molar extinction coefficient, quantum yield). The class given is physicochemical. The settings on record: for ε405 nm (molar extinction coefficient): 405 nm, 10% DMSO; for ε405 nm (molar extinction coefficient) / Φ (quantum yield): PBS; for Φ (quantum yield) / Abs. λmax / Em. λmax: 1% DMSO; for Φ (quantum yield): relative to 30; for Abs. λmax / Em. λmax: aqueous PBS. Here is the method:
FIG. […] FIG. 4B depicts the determination of molar extinction coefficients (ε405 nm) of 26-28 as previously described in J. Am. Chem. Soc. […] The integrated fluorescence intensity (Ex. 405 nm, Em. 420-700 nm) was plotted against the maximum absorbance of the sample at the concentration studied (100 nM-6.25 nM) as extrapolated from absorbance measurements at higher concentrations. The slope determined by linear least squares (zero intercept) is proportional to the quantum yield. Spectra were acquired with a BMG LabTech ClarioStar Plus microtiterplate reader.

The nature of a further data set: physchem. The following applies: aqueous buffers of varied pH.
The target in the next data set is purified microtubules. The settings on record: literature; cited from earlier work.
Data set [2] concerns microtubules of living HeLa cells. The settings on record: for Kd: read-out: cellular Kd.
The conditions of data set [3]: literature; cited from earlier work.
The conditions of data set [4]: cited from earlier work; for ε405 nm (molar extinction coefficient): 405 nm, PBS, 10% DMSO, previously described; for Φ (quantum yield): pH 7.4, 1% DMSO, based on a previously reported PB-biotin amide.
Another data set concerns HEK293T cells. Kind of data set: Cytotoxicity by propidium iodide staining in the FPCBA with DDR1-expressing cells. The class given is cell-based. The settings on record: living HEK293T cells, FPCBA competition experiments, [6FC-Dasatinib]=1 μM. Here is the method: FIGS. 6A and 6B depict a fluorescent probe cellular binding assay (FPCBA) with 6FC-Dasatanib and native DDR1 kinase (IRES-mVenus). (FIG. 6A) Binding of 6FC-Dasatanib to native DDR1 expressed in living HEK293T cells by flow cytometry (2 h, 37° C.). (FIG. 6B) Competition experiments against native DDR1 in living HEK293T cells with the kinase inhibitors ponatinib and dasatinib by flow cytometry. [6FC-Dasatinib]=1 μM.
The previously reported FPCBA approach (Yin, Y. et al. J Am. Chem. Soc. 2024, 146 (1), 187-200) was used to analyze binding of small molecules to native full length DDR1 kinase overexpressed in living HEK293T cells (IRES-mVenus vector) by flow cytometry.

Another data set deals with HeLa cells. The settings on record: 3 h, 37° C., absence of verapamil.
Setting [5] is: living HeLa cells, 3 h, 37° C., absence of verapamil.
Setting [6] is: living HeLa cells, 3 h, 37° C., presence of verapamil (100 μM).

Values joined by “and” are separate entries in the source; they are usually repeats but may differ in a detail not shown here. Identical values can stand only once. Like-named read-outs stand apart in the source and are kept apart here. Marks after values point to notes of the source that are not given here.

The term pKa denotes the negative logarithm of the acid dissociation constant. A high value points to a weaker acid or stronger base. Consider `CCCCCCNC(=O)c1cc2cc(F)c(O)cc2oc1=O` [Compound 27, 6-Fluoro-N-hexyl-7-hydroxy-2-oxo-2H-chromene-3-carboxamide], for which, in data set [1] (pH 7.4), the “ε405 nm (molar extinction coefficient)” value was 37,000 M^−1 cm^−1, the “Φ (quantum yield)” value is given as 0.84, the “Abs. λmax” value came to 401 nm and the “Em. λmax” value is recorded as 451 nm. In addition, the “Brightness (product of molar extinction coefficient and quantum yield) relative to PB-hexanamide (30)” value in data set [1] (pH 7.4) is 145%. The “ε405 nm (molar extinction coefficient)” value in data set [1] (pH 7.4, listed as 6FC-hexanamide (27)) is 37,000 M^−1 cm^−1 and 37,000 (7.4) M^−1 cm^−1. Besides, in “physchem”, the pKa was determined as 6.5.
What is called Ki is a measure of affinity in units of concentration, obtained from inhibition or displacement. For `CC(=O)O[C@H]1C(=O)[C@@]2(C)[C@H]([C@H](OC(=O)c3ccccc3)[C@]3(O)C[C@H](OC(=O)[C@H](O)[C@@H](NC(=O)c4ccccc4)c4ccccc4)C(C)=C1C3(C)C)[C@]1(OC(C)=O)CO[C@@H]1C[C@@H]2O` [paclitaxel], the Ki at purified microtubules was 19 nM and 27 nM and 31 nM.
In general, Kd refers to the constant that tells how readily two partners part at equilibrium. For the compound `CC(=O)O[C@H]1C(=O)[C@]2(C)[C@@H](OC(=O)CCCNC(=O)c3cc4cc(F)c(O)cc4oc3=O)C[C@H]3OC[C@@]3(OC(C)=O)[C@H]2[C@H](OC(=O)c2ccccc2)[C@]2(O)C[C@H](OC(=O)[C@H](O)[C@@H](NC(=O)c3ccccc3)c3ccccc3)C(C)=C1C2(C)C` [Compound 9, (2aR,4S,4aS,6R,9S,11S,12S,12bS)-9-(((2R,3S)-3-benzamido-2-hydroxy-3-phenylpropanoyl)oxy)-12-(benzoyloxy)-4-((4-(6-fluoro-7-hydroxy-2-oxo-2H-chromene-3-carboxamido)butanoyl)oxy)-11-hydroxy-4a,8,13,13-tetramethyl-5-oxo-3,4,4a,5,6,9,10,11,12,12a-decahydro-1H-7,11-methanocyclodeca[3,4]benzo[1,2-b]oxete-6,12b(2aH)-diyl diacetate], the Kd in data set [2] (setting [5]) is 2400 nM; in data set [2] (setting [6]), 150 nM.
Regarding `O=C(O)c1cc2ccc(O)cc2oc1=O` [Compound 1, 7-hydroxycoumarin-3-carboxylic acid], the “pKa of the phenol” value in data set [3] is on record as 7.0-7.5.
Turning to `CCCCCCNC(=O)c1cc2cc(F)c(O)c(F)c2oc1=O` [Compound 30, 6,8-Difluoro-N-hexyl-7-hydroxy-2-oxo-2H-chromene-3-carboxamide, reference compound], the “ε405 nm (molar extinction coefficient)” value in data set [4] (pH 7.4) was 29,000 (7.4) M^−1 cm^−1. In addition, the “Φ (quantum yield)” value in data set [4] is on record as 0.74. Besides, in data set [4] (listed as PB-hexanamide (30)), the “Φ (quantum yield)” value is listed as 0.74^‡. In data set [1] (pH 7.4), the “Abs. λmax” value is given as 403 nm and the “Em. λmax” value is recorded as 447 nm. For the same compound, the pKa in “physchem” worked out at 4.1.
With `CCCCCCNC(=O)c1cc2ccc(O)c(F)c2oc1=O` [Compound 28, 8-Fluoro-N-hexyl-7-hydroxy-2-oxo-2H-chromene-3-carboxamide], in data set [1] (pH 7.4), the “ε405 nm (molar extinction coefficient)” value was 28,000 (7.4) M^−1 cm^−1, the “Φ (quantum yield)” value is recorded as 0.69, the “Abs. λmax” value was determined as 402 nm and the “Em. λmax” value is 457 nm. Besides, in the data set “physchem”, the pKa is 6.
Regarding `Cc1nc(Nc2ncc(C(=O)Nc3c(C)cccc3Cl)s2)cc(N2CCN(CCOCCNC(=O)c3cc4cc(F)c(O)cc4oc3=O)CC2)n1` [6FC-Dasatinib, N-(2-chloro-6-methylphenyl)-2-((6-(4-(2-(2-(6-fluoro-7-hydroxy-2-oxo-2H-chromene-3-carboxamido)ethoxy)ethyl)piperazin-1-yl)-2-methylpyrimidin-4-yl)amino)thiazole-5-carboxamide], in the data set on HEK293T cells, the “Cytotoxicity (propidium iodide staining)” value was “No cytotoxicity was observed”.
In the case of `O=C(O)c1cc2cc(F)c(O)c(F)c2oc1=O` [Compound 2, Pacific Blue], the “pKa of the phenol” value in data set [3] was 4.7.
As for `CC(=O)O[C@H]1C(=O)[C@]2(C)[C@@H](OC(=O)CCCNC(=O)c3cc4ccc(O)c(F)c4oc3=O)C[C@H]3OC[C@@]3(OC(C)=O)[C@H]2[C@H](OC(=O)c2ccccc2)[C@]2(O)C[C@H](OC(=O)[C@H](O)[C@@H](NC(=O)c3ccccc3)c3ccccc3)C(C)=C1C2(C)C` [Compound 10, (2aR,4S,4aS,6R,9S,11S,12S,12bS)-9-(((2R,3S)-3-Benzamido-2-hydroxy-3-phenylpropanoyl)oxy)-12-(benzoyloxy)-4-((4-(8-fluoro-7-hydroxy-2-oxo-2H-chromene-3-carboxamido)butanoyl)oxy)-11-hydroxy-4a,8,13,13-tetramethyl-5-oxo-3,4,4a,5,6,9,10,11,12,12a-decahydro-1H-7,11-methanocyclodeca[3,4]benzo[1,2-b]oxete-6,12b(2aH)-diyl diacetate], the Kd in data set [2] (setting [5]) is 3500 nM; in data set [2] (setting [6]), 230 nM.
On to `CC(=O)O[C@H]1C(=O)[C@]2(C)[C@@H](OC(=O)CCCNC(=O)c3cc4c(F)cc(O)cc4oc3=O)C[C@H]3OC[C@@]3(OC(C)=O)[C@H]2[C@H](OC(=O)c2ccccc2)[C@]2(O)C[C@H](OC(=O)[C@H](O)[C@@H](NC(=O)c3ccccc3)c3ccccc3)C(C)=C1C2(C)C` [Compound 8, (2aR,4S,4aS,6R,9S,11S,12S,12bS)-9-(((2R,3S)-3-benzamido-2-hydroxy-3-phenylpropanoyl)oxy)-12-(benzoyloxy)-4-((4-(5-fluoro-7-hydroxy-2-oxo-2H-chromene-3-carboxamido)butanoyl)oxy)-11-hydroxy-4a,8,13,13-tetramethyl-5-oxo-3,4,4a,5,6,9,10,11,12,12a-decahydro-1H-7,11-methanocyclodeca[3,4]benzo[1,2-b]oxete-6,12b(2aH)-diyl diacetate], for which the “S/B (maximal signal-to-background, fold change)” value in data set [2] (0.4 μM probe, absence of verapamil) came out at 7 fold. Also, the “cellular Kd” value in data set [2] (setting [5]) is reported as “low affinity prevented accurate determination”. For the same compound, the Kd in data set [2] (setting [6]) was determined as 150 nM.
With `CCCCCCNC(=O)c1cc2c(F)cc(O)cc2oc1=O` [Compound 26, 5-Fluoro-N-hexyl-7-hydroxy-2-oxo-2H-chromene-3-carboxamide], in data set [1] (pH 7.4), the “ε405 nm (molar extinction coefficient)” value is given as 25,000 (7.4) M^−1 cm^−1, the “Φ (quantum yield)” value was 0.73, the “Abs. λmax” value came out at 400 nm and the “Em. λmax” value was 449 nm. For the same compound, in “physchem”, the pKa is 6.9.
On to “(2aR,4S,4aS,6R,9S,11S,12S,12bS)-9-(((2R,3S)-3-benzamido-2-hydroxy-3-phenylpropanoyl)oxy)-12-(benzoyloxy)-11-hydroxy-4-((4-(7-hydroxy-2-oxo-2H-chromene-3-carboxamido)butanoyl)oxy)-4a,8,13,13-tetramethyl-5-oxo-3,4,4a,5,6,9,10,11,12,12a-decahydro-1H-7,11-methanocyclodeca[3,4]benzo[1,2-b]oxete-6,12b(2aH)-diyldiacetate [Compound 6]”, for which the Cellular uptake entry with HeLa cells is listed as “high cellular uptake”.
In the case of `CCCCCCNC(=O)c1cc2ccc(O)cc2oc1=O` [Compound 29, N-Hexyl-7-hydroxy-2-oxo-2H-chromene-3-carboxamide, reference compound], the “ε405 nm (molar extinction coefficient)” value in data set [4] (pH 10) is recorded as 22,000 (10) M^−1 cm^−1. Moreover, in data set [1] (pH 7.4), the “Φ (quantum yield)” value was determined as 0.35, the “Abs. λmax” value is recorded as 401 nm and the “Em. λmax” value stood at 447 nm. Also, the “Φ (quantum yield)” value in data set [1] (pH 10) was found to be 0.62. This compound also gave a pKa in “physchem” of 7.3.
Turning to `COC(=O)c1cc2cc(F)c(O)c(F)c2oc1=O` [PB methyl ester], the “pKa of the phenol” value in data set [3] is 3.7.
